Values joined by “and” are separate entries in the source; they are usually repeats but may differ in a detail not shown here. Equal values may be shown once. Inconclusive results and toxic doses are left out.
Test system: BDF1 mice, P388 leukemia ip, median survival T/C
Experiment: NCI In Vivo Anticancer Drug Screen. Data for tumor model P388 Leukemia (intraperitoneal) in B6D2F1 (BDF1) mice
Conditions: endpoint: median survival time, higher = longer survival
How it was run: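 Reported as T/C, where T is the survival measurement in dosed animals and C the same measurement in vehicle controls.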

[1] = dose: 50.0 mg/kg/injection, schedule: Q01DX009 (ip), vehicle: Klucel (hydroxypropylcellulose) (HPC)
[2] = dose: 100.0 mg/kg/injection, schedule: Q04DX003 (ip), vehicle: Klucel (hydroxypropylcellulose) (HPC)
[3] = dose: 200.0 mg/kg/injection, schedule: Q04DX003 (ip), vehicle: Klucel (hydroxypropylcellulose) (HPC)
[4] = dose: 100.0 mg/kg/injection, schedule: Q04DX003 (ip), vehicle: saline with Tween-80
[5] = dose: 25.0 mg/kg/injection, schedule: Q01DX009 (ip), vehicle: saline
[6] = dose: 50.0 mg/kg/injection, schedule: Q01DX009 (ip), vehicle: saline
[7] = dose: 100.0 mg/kg/injection, schedule: Q01DX009 (ip), vehicle: saline
[8] = dose: 100.0 mg/kg/injection, schedule: Q01DX009 (ip), vehicle: saline with Tween-80
[9] = dose: 200.0 mg/kg/injection, schedule: Q01DX009 (ip), vehicle: saline with Tween-80
[10] = dose: 200.0 mg/kg/injection, schedule: Q04DX003 (ip), vehicle: saline with Tween-80
[11] = dose: 400.0 mg/kg/injection, schedule: Q01DX009 (ip), vehicle: saline with Tween-80
[12] = dose: 400.0 mg/kg/injection, schedule: Q04DX003 (ip), vehicle: saline with Tween-80

For N#CSc1ccc(Nc2ccc(SC#N)cc2)cc1, the T/C (dose: 6.25 mg/kg/injection, schedule: Q01DX009 (ip), vehicle: Klucel (hydroxypropylcellulose) (HPC)) was 100 % of control, the T/C (dose: 12.5 mg/kg/injection, schedule: Q01DX009 (ip), vehicle: Klucel (hydroxypropylcellulose) (HPC)) was 100 % of control and the T/C (dose: 25.0 mg/kg/injection, schedule: Q01DX009 (ip), vehicle: Klucel (hydroxypropylcellulose) (HPC)) was 118 % of control. For the same molecule, the T/C (dose: 35.0 mg/kg/injection, schedule: Q01DX009 (ip), vehicle: Klucel (hydroxypropylcellulose) (HPC)) was 108 % of control, the T/C [1] was 109 % of control and the T/C (dose: 53.0 mg/kg/injection, schedule: Q01DX009 (ip), vehicle: Klucel (hydroxypropylcellulose) (HPC)) was 105 % of control. The T/C (dose: 80.0 mg/kg/injection, schedule: Q01DX009 (ip), vehicle: Klucel (hydroxypropylcellulose) (HPC)) was 109 % of control and 110 % of control and the T/C (dose: 120.0 mg/kg/injection, schedule: Q01DX009 (ip), vehicle: Klucel (hydroxypropylcellulose) (HPC)) was 120 % of control and 122 % of control.

For OC12CCC[N+]1(Cc1ccccc1)CCC2 (centres undefined), the T/C (dose: 25.0 mg/kg/injection, schedule: Q01DX010 (ip), vehicle: carboxymethylcellulose (CMC)) was 90 % of control.

With Cc1ccc2ccccc2n1 the T/C (dose: 100.0 mg/kg/injection, schedule: Q04DX003 (ip), vehicle: saline) was 87 % of control and the T/C (dose: 200.0 mg/kg/injection, schedule: Q04DX003 (ip), vehicle: saline) was 91 % of control.

In the case of COC(OC)c1cc(=O)[nH]c(=S)n1Cl, the T/C [2] is reported as 100 % of control, the T/C [3] is reported as 104 % of control and the T/C (dose: 400.0 mg/kg/injection, schedule: Q04DX003 (ip), vehicle: Klucel (hydroxypropylcellulose) (HPC)) is reported as 100 % of control.

In the case of COc1cc2cc[n+](C)c(Cc3ccccc3)c2cc1OC, the T/C (dose: 12.5 mg/kg/injection, schedule: Q01DX009 (ip), vehicle: saline with Tween-80) is reported as 100 % of control, the T/C [1] is reported as 159 % of control and the T/C (dose: 50.0 mg/kg/injection, schedule: Q04DX003 (ip), vehicle: saline with Tween-80) is reported as 113 % of control. The T/C [4] was 90 % of control.

With CC(=O)ON(CC(=O)OCc1ccccc1)C(C)=O the T/C (dose: 12.5 mg/kg/injection, schedule: Q01DX009 (ip), vehicle: other) was 100 % of control, the T/C (dose: 25.0 mg/kg/injection, schedule: Q01DX009 (ip), vehicle: other) was 102 % of control and the T/C (dose: 50.0 mg/kg/injection, schedule: Q01DX009 (ip), vehicle: other) was 118 % of control. For the same molecule, the T/C (dose: 100.0 mg/kg/injection, schedule: Q01DX009 (ip), vehicle: other) was 102 % of control and the T/C (dose: 200.0 mg/kg/injection, schedule: Q01DX009 (ip), vehicle: other) was 100 % of control.

In the case of CCCCCC(C[N+]1(C)CCOCC1)C(=O)/C=C/c1ccccc1 (centres undefined), the T/C (dose: 12.5 mg/kg/injection, schedule: Q01DX009 (ip), vehicle: saline) is reported as 95 % of control, the T/C [5] is reported as 120 % of control and the T/C [6] is reported as 124 % of control.

COc1ccc(NC(=O)Nc2c(Oc3ccc(Cl)cc3)ccc(Cl)c2S(=O)(=O)O)cc1Cl was tested, and the T/C [5] was 109 % of control, the T/C [6] was 86 % of control and the T/C [7] was 104 % of control.

For CC(=O)Nc1ccccc1C1SCCCS1, the T/C (dose: 50.0 mg/kg/injection, schedule: Q04DX002 (ip), vehicle: saline with Tween-80) was 102 % of control, the T/C (dose: 100.0 mg/kg/injection, schedule: Q04DX002 (ip), vehicle: saline with Tween-80) was 98 % of control and the T/C (dose: 200.0 mg/kg/injection, schedule: Q04DX002 (ip), vehicle: saline with Tween-80) was 106 % of control.

With O=[N+]([O-])c1ccccc1CN1c2ccccc2N=C2c3ccccc3CC21 (centres undefined) the T/C (dose: 100.0 mg/kg/injection, schedule: Q04DX003 (ip), vehicle: saline sonified) was 116 % of control, the T/C (dose: 200.0 mg/kg/injection, schedule: Q04DX003 (ip), vehicle: saline sonified) was 100 % of control and the T/C (dose: 400.0 mg/kg/injection, schedule: Q04DX003 (ip), vehicle: saline sonified) was 91 % of control.

With CC[C@]1(O)CC(OC2CC(N(C)C)C(O)C(C)O2)c2c(cc3c(c2O)C(=O)c2c(O)cccc2C3=O)[C@@H]1C(=O)OC (some centres undefined) the T/C (dose: 1.25 mg/kg/injection, schedule: Q01DX001 (ip), vehicle: saline) was 104 % of control and 110 % of control, the T/C (dose: 2.5 mg/kg/injection, schedule: Q01DX001 (ip), vehicle: saline) was 100 % of control and 109 % of control and the T/C (dose: 5.0 mg/kg/injection, schedule: Q01DX001 (ip), vehicle: saline) was 100 % of control. For the same molecule, the T/C (dose: 10.0 mg/kg/injection, schedule: Q01DX001 (ip), vehicle: saline) was 100 % of control.

For COc1ccc2c(c1)C(=O)CC=C(C(=O)O)N2, the T/C [8] was 112 % of control, the T/C [4] was 100 % of control and the T/C [9] was 112 % of control. For the same molecule, the T/C [10] was 115 % of control, the T/C [11] was 116 % of control and the T/C [12] was 115 % of control.

In the case of COc1ccccc1CN1CCCN(Cc2ccccc2OC)C1c1ccc(N(CCCl)CCCl)cc1C, the T/C (dose: 65.0 mg/kg/injection, schedule: Q01DX009 (ip), vehicle: Klucel (hydroxypropylcellulose) (HPC)) is reported as 95 % of control and the T/C (dose: 100.0 mg/kg/injection, schedule: Q01DX009 (ip), vehicle: Klucel (hydroxypropylcellulose) (HPC)) is reported as 109 % of control.

For O/N=C\c1c(O)ccc2ccccc12, the T/C (dose: 100.0 mg/kg/injection, schedule: Q01DX001 (ip), vehicle: saline with Tween-80) was 106 % of control, the T/C (dose: 200.0 mg/kg/injection, schedule: Q01DX001 (ip), vehicle: saline with Tween-80) was 105 % of control and the T/C (dose: 400.0 mg/kg/injection, schedule: Q01DX001 (ip), vehicle: saline with Tween-80) was 106 % of control.

For CCOC(=O)C(CC(OCC)OCC)C(=O)OCC, the T/C [8] was 100 % of control, the T/C [4] was 104 % of control and the T/C [9] was 91 % of control. The T/C [10] was 113 % of control, the T/C [11] was 122 % of control and the T/C [12] was 113 % of control.

With O=C(Cc1ccc([N+](=O)[O-])cc1)c1ccc(O)cc1O the T/C (dose: 50.0 mg/kg/injection, schedule: Q04DX003 (ip), vehicle: Klucel (hydroxypropylcellulose) (HPC)) was 86 % of control, the T/C [2] was 95 % of control and the T/C [3] was 90 % of control.

With O=c1[nH]c(=O)n(C2CC(O)C(CO)O2)cc1F (centres undefined) the T/C (dose: 5.0 mg/kg/injection, schedule: Q01DX010 (ip), vehicle: saline) was 113 % of control, the T/C (dose: 15.0 mg/kg/injection, schedule: Q03HX024 (ip), vehicle: saline) was 172 % of control and the T/C (dose: 22.0 mg/kg/injection, schedule: Q03HX024 (ip), vehicle: saline) was 186 % of control. The T/C [5] was 186 % of control, the T/C (dose: 33.0 mg/kg/injection, schedule: Q01DX009 (ip), vehicle: saline) was 173 % of control and the T/C (dose: 34.0 mg/kg/injection, schedule: Q03HX024 (ip), vehicle: saline) was 200 % of control. For the same molecule, the T/C (dose: 40.0 mg/kg/injection, schedule: Q01DX009 (ip), vehicle: water) was 168 % of control and 172 % of control and 200 % of control, the T/C (dose: 44.0 mg/kg/injection, schedule: Q01DX009 (ip), vehicle: saline) was 166 % of control and the T/C (dose: 49.0 mg/kg/injection, schedule: Q01DX009 (ip), vehicle: saline) was 202 % of control. For the same molecule, the T/C [6] was 218 % of control, the T/C (dose: 50.0 mg/kg/injection, schedule: Q03HX024 (ip), vehicle: saline) was 215 % of control and the T/C (dose: 60.0 mg/kg/injection, schedule: Q01DX009 (ip), vehicle: water) was 190 % of control (2×) and 195 % of control. For the same molecule, the T/C (dose: 67.0 mg/kg/injection, schedule: Q01DX009 (ip), vehicle: saline) was 185 % of control, the T/C (dose: 73.0 mg/kg/injection, schedule: Q01DX009 (ip), vehicle: saline) was 202 % of control and the T/C (dose: 74.0 mg/kg/injection, schedule: Q01DX009 (ip), vehicle: saline) was 169 % of control and 183 % of control and 186 % of control. For the same molecule, the T/C (dose: 80.0 mg/kg/injection, schedule: Q01DX009 (ip), vehicle: water) was 190 % of control and 200 % of control and 222 % of control, the T/C [7] was 109 % of control and 206 % of control and the T/C (dose: 155.0 mg/kg/injection, schedule: Q04DX004 (ip), vehicle: saline) was 157 % of control. For the same molecule, the T/C (dose: 165.0 mg/kg/injection, schedule: Q01DX009 (ip), vehicle: saline) was 109 % of control, the T/C (dose: 205.0 mg/kg/injection, schedule: Q01DX001 (ip), vehicle: saline) was 124 % of control and the T/C (dose: 233.0 mg/kg/injection, schedule: Q04DX004 (ip), vehicle: saline) was 170 % of control. The T/C (dose: 350.0 mg/kg/injection, schedule: Q04DX004 (ip), vehicle: saline) was 190 % of control, the T/C (dose: 525.0 mg/kg/injection, schedule: Q04DX004 (ip), vehicle: saline) was 110 % of control and the T/C (dose: 685.0 mg/kg/injection, schedule: Q01DX001 (ip), vehicle: saline) was 157 % of control. The T/C (dose: 1025.0 mg/kg/injection, schedule: Q01DX001 (ip), vehicle: saline) was 172 % of control.
